Read-outs that look alike come from different tables or passages of the source.
Key:
[1] = molecular target: T1, tubulin/RB3-stathmin-like-domain (RB3-SLD-tdm) complex (Sus scrofa, UniProt P02550+P02554); assay: Tubulin Peptide-Binding Site Competition Assay (fluorescence polarization); design: species or system Porcine
T1 construct: purchased Cytoskeleton, Inc. T240; host or cells: RB3-SLD was made in house in E. coli
Method: Tubulin Peptide-Binding Site Competition Assay
Tubulin binding potency was measured for payloads or cysteine-capped linker-payloads using a fluorescence polarization (FP) competition assay. The binding of a BODIPY-labeled vinca peptide probe (# B31) to a tubulin/RB3-stathmin-like-domain (RB3-SLD-tdm) complex generates a high FP signal, which can be decreased when mixing with test compounds that compete with the FP probe. The order of addition for the reagents in the FP assay was designed to pre-mix the FP probe with various concentrations of the test compound before mixing them with the tubulin/RB3-SLD-dm complex. The final assay concentrations of the probe, tubulin and RB3-SLD-dm were 3, 6, and 100 nM, respectively. IC50 for each test compound is obtained by fitting the dose-dependent FP signal change using GraphPad Prism version 5 software (La Jolla, Calif.) while Ki is converted from the IC50 using the equations described previously (Nikolovska-Coleska et al., 2004). The FP signals were measured on an Infinite M1000 (Tecan, San Jose, Calif.) using ProxiPlate-384 F Plus, Black (Perkin-Elmer, Waltham, Mass., Cat #6008260) with 15 μL of solution per well. Sample dilution and mixing were done using a Beckman Biomek XF (Brea, Calif.). Porcine tubulin was purchased from Cytoskeleton, Inc. (Denver, Colo., Cat #T240) and RB3-SLD was expressed in E. coli. and purified on Q and then Superdex75 columns. The FP assay test for each compound was run in duplicates by mixing 6 μL of solution 1 containing 2.5× test compound (2.5× serial dilution from 7.8 μM maximum concentration, 11 total concentrations) and 7.5 nM of the FP probe in 80 mM PIPES, pH 7.0, 0.02% Tween 20, 2 mM MgCl2, 1 mM EGTA and 3% DMSO with 9 μL of solution 2 containing […] porcine tubulin and 167 nM of RB3-SLD-dm peptide ([…]-[…]) on ProxiPlate-384 micro-plates.

[2] = tested on: N87 (gastric cancer) cells; assay: In vitro cell assay (MTS cell viability), N87; format: cell-based; details: 96 h, free compounds; 96 hours after treatment
Method: (§1) In Vitro Cell Assay Procedure
(§2) Target expressing (BT474 (breast cancer), N87 (gastric cancer), HCC1954 (breast cancer), MDA-MB-361-DYT2 (breast cancer)) or non-expressing (HT-29) cells were seeded in 96-well cell culture plates for 24 hours before treatment. Cells were treated with 3-fold serially diluted antibody-drug conjugates or free compounds (i. e. no antibody conjugated to the drug) in duplicate at 10 concentrations. Cell viability was determined by CellTiter 96® AQueous One Solution Cell Proliferation MTS Assay (Promega, Madison Wis.) 96 hours after treatment. Relative cell viability was determined as percentage of untreated control. IC50 values were calculated using a four parameter logistic model #203 with XLfit v4. 2 (IDBS, Guildford, Surry, UK).

[3] = tested on: MDA-MB-361-DYT2 (breast cancer) cells; assay: In vitro cell assay (MTS cell viability), MDA-MB-361-DYT2; format: cell-based; details: 96 h, free compounds; 96 hours after treatment
Method: as §1, §2

[4] = FP competition with BODIPY-labeled vinca peptide probe, read after five hours at 22° C., read-out: Tubulin Peptide-Binding Site Competition Assay IC50

| SMILES | IC50 [1, 4] | IC50 [2] | IC50 [3] | IC50 [1] |
| --- | --- | --- | --- | --- |
| CC[C@H](C)[C@H](NC(=O)C1(N(C)C)CCCC1)C(=O)N(C)[C@H](C[C@@H](OC(C)=O)c1nc(C(=O)N[C@@H](Cc2ccccc2)C[C@H](C)C(=O)OC)cs1)C(C)C [#B1, methyl (2S,4R)-4-{[(2-{(1R,3R)-1-(acetyloxy)-3-[(N-{[1-(dimethylamino)cyclopentyl]carbonyl}-L-isoleucyl)(methyl)amino]-4-methylpentyl}-1,3-thiazol-4-yl)carbonyl]amino}-2-methyl-5-phenylpentanoate] | 250 nM | 18.9 nM | 19 nM | – |
| CC[C@H](C)[C@H](NC(=O)[C@]1(C)CCCN1C)C(=O)N(C)[C@H](C[C@@H](OC(C)=O)c1nc(C(=O)N[C@@H](Cc2ccccc2)C[C@H](C)C(=O)OC)cs1)C(C)C [#B2, 1,2-dimethyl-L-prolyl-N-[(1R,3R)-1-(acetyloxy)-1-(4-{[(2R,4S)-5-methoxy-4-methyl-5-oxo-1-phenylpentan-2-yl]carbamoyl}-1,3-thiazol-2-yl)-4-methylpentan-3-yl]-N-methyl-L-isoleucinamide] | 92.2 nM | 11.8 nM | 5.54 nM | – |
| CC[C@H](C)[C@H](NC(=O)[C@H]1CCCCN1C)C(=O)N(C)[C@H](C[C@@H](OC(C)=O)c1nc(C(=O)N[C@@H](Cc2ccccc2)CC(C)P(=O)(O)O)cs1)C(C)C (stereo partly drawn) [#B3, N-[(1R,3R)-1-(acetyloxy)-4-methyl-1-(4-{[(2S)-1-phenyl-4-phosphonopentan-2-yl]carbamoyl}-1,3-thiazol-2-yl)pentan-3-yl]-N-methyl-N˜2˜-{[(2R)-1-methylpiperidin-2-yl]carbonyl}-L-isoleucinamide] | – | 14.8 nM | 9.4 nM | 4.4 nM |
| CC[C@H](C)[C@H](NC(=O)[C@H]1CCCCN1C)C(=O)N(C)[C@H](C[C@@H](OC(C)=O)c1nc(C(=O)NN(Cc2ccccc2)CC(C)C(=O)O)cs1)C(C)C (stereo partly drawn) [#B4, 3-{2-[(2-{(1R,3R)-1-(acetyloxy)-4-methyl-3-[methyl(N-{[(2R)-1-methylpiperidin-2-yl]carbonyl}-L-isoleucyl)amino]pentyl}-1,3-thiazol-4-yl)carbonyl]-1-benzylhydrazinyl}-2-methylpropanoic Acid] | 4.6 nM | 3.38 nM | 2.39 nM | – |
| CC[C@H](C)[C@H](NC(=O)[C@@]1(C)CCCN1)C(=O)N(C)[C@H](C[C@@H](OC(C)=O)c1nc(C(=O)N[C@@H](Cc2ccccc2)C[C@H](C)C(=O)OC)cs1)C(C)C [#B6, 2-methyl-D-prolyl-N-[(1R,3R)-1-(acetyloxy)-1-(4-{[(2R,4S)-5-methoxy-4-methyl-5-oxo-1-phenylpentan-2-yl]carbamoyl}-1,3-thiazol-2-yl)-4-methylpentan-3-yl]-N-methyl-L-isoleucinamide] | 119 nM | 29.3 nM | 18.6 nM | – |
| CCOC(=O)[C@@H](C)C[C@H](Cc1ccccc1)NC(=O)c1csc([C@@H](C[C@H](C(C)C)N(C)C(=O)[C@@H](NC(=O)[C@@]2(C)CCCN2C)[C@@H](C)CC)OC(C)=O)n1 [#B7, 1,2-dimethyl-D-prolyl-N-[(1R,3R)-1-(acetyloxy)-1-(4-{[(2R,4S)-5-ethoxy-4-methyl-5-oxo-1-phenylpentan-2-yl]carbamoyl}-1,3-thiazol-2-yl)-4-methylpentan-3-yl]-N-methyl-L-isoleucinamide] | 11.9 nM | 9.53 nM | 5.15 nM | – |
| CC[C@H](C)[C@H](NC(=O)[C@@]1(C)CCCN1C)C(=O)N(C)[C@H](C[C@@H](OC(C)=O)c1nc(C(=O)NC(c2ccccc2)c2ccccc2)cs1)C(C)C [#B67, 1,2-dimethyl-D-prolyl-N-[(1R,3R)-1-(acetyloxy)-1-{4-[(diphenylmethyl)carbamoyl]-1,3-thiazol-2-yl}-4-methylpentan-3-yl]-N-methyl-L-isoleucinamide] | 348 nM | – | – | – |
| CC[C@H](C)[C@H](NC(=O)[C@@]1(C)CCCN1C)C(=O)N(C)[C@H](C[C@@H](OC(C)=O)c1nc(C(=O)NCCc2cnccn2)cs1)C(C)C [#B68, 1,2-dimethyl-D-prolyl-N-{(1R,3R)-1-(acetyloxy)-4-methyl-1-(4-{[2-(pyrazin-2-yl)ethyl]carbamoyl}-1,3-thiazol-2-yl)pentan-3-yl]-N-methyl-L-isoleucinamide] | 84.7 nM | – | – | – |
| CC[C@H](C)[C@H](NC(=O)[C@@]1(C)CCCN1C)C(=O)N(C)[C@H](C[C@@H](OC(C)=O)c1nc(C(=O)NCC2OCCc3ccccc32)cs1)C(C)C (stereo partly drawn) [#B69, 1,2-dimethyl-D-prolyl-N-[(1R,3R)-1-(acetyloxy)-1-{4-[(3,4-dihydro-1H-isochromen-1-ylmethyl)carbamoyl]-1,3-thiazol-2-yl}-4-methylpentan-3-yl}-N-methyl-L-isoleucinamide] | 29.9 nM | – | – | – |
| CC[C@H](C)[C@H](NC(=O)[C@@]1(C)CCCN1C)C(=O)N(C)[C@H](C[C@@H](OC(C)=O)c1nc(C(=O)NCCc2cccc3ccccc23)cs1)C(C)C [#B70, 1,2-dimethyl-D-prolyl-N-[(1R,3R)-1-(acetyloxy)-4-methyl-1-(4-{[2-(naphthalen-1-yl)ethyl]carbamoyl}-1,3-thiazol-2-yl)pentan-3-yl]-N-methyl-L-isoleucinamide] | 56.3 nM | – | – | – |
| CC[C@H](C)[C@H](NC(=O)[C@@]1(C)CCCN1C)C(=O)N(C)[C@H](C[C@@H](OC(C)=O)c1nc(C(=O)NCCc2cncnc2)cs1)C(C)C [#B71, 1,2-dimethyl-D-prolyl-N-[(1R,3R)-1-(acetyloxy)-4-methyl-1-(4-{[2-(pyrimidin-5-yl)ethyl]carbamoyl}-1,3-thiazol-2-yl)pentan-3-yl]-N-methyl-L-isoleucinamide] | 85.1 nM | – | – | – |
| CC[C@H](C)[C@H](NC(=O)[C@@]1(C)CCCN1C)C(=O)N(C)[C@H](C[C@@H](OC(C)=O)c1nc(C(=O)N[C@@H](Cc2ccccc2)CN2CCOCC2)cs1)C(C)C [#B72, 1,2-dimethyl-D-prolyl-N-[(1R,3R)-1-(acetyloxy)-4-methyl-1-(4-{[(2S)-1-(morpholin-4-yl)-3-phenylpropan-2-yl]carbamoyl}-1,3-thiazol-2-yl)pentan-3-yl]-N-methyl-L-isoleucinamide] | 32.9 nM | – | – | – |
| CC[C@H](C)[C@H](NC(=O)[C@@]1(C)CCCN1C)C(=O)N(C)[C@H](C[C@@H](OC(C)=O)c1nc(C(=O)NCCN2CCCC2=O)cs1)C(C)C [#B73, 1,2-dimethyl-D-prolyl-N-[(1R,3R)-1-(acetyloxy)-4-methyl-1-(4-{[2-(2-oxopyrrolidin-1-yl)ethyl]carbamoyl}-1,3-thiazol-2-yl)pentan-3-yl]-N-methyl-L-isoleucinamide] | 85.5 nM | – | – | – |
| CC[C@H](C)[C@H](NC(=O)[C@@]1(C)CCCN1C)C(=O)N(C)[C@H](C[C@@H](OC(C)=O)c1nc(C(=O)NC(Cc2ccccc2)c2ccccc2)cs1)C(C)C (stereo partly drawn) [#B74, 1,2-dimethyl-D-prolyl-N-[(1R,3R)-1-(acetyloxy)-1-{4-[(1,2-diphenylethyl)carbamoyl]-1,3-thiazol-2-yl}-4-methylpentan-3-yl]-N-methyl-L-isoleucinamide] | 89.3 nM | – | – | – |
| CCOC(=O)c1ncoc1[C@H](Cc1ccccc1)NC(=O)c1csc([C@@H](C[C@H](C(C)C)N(C)C(=O)[C@@H](NC(=O)[C@@]2(C)CCCN2C)[C@@H](C)CC)OC(C)=O)n1 [#B75, 1,2-dimethyl-D-prolyl-N-{(1R,3R)-1-(acetyloxy)-1-[4-({(1S)-1-[4-(ethoxycarbonyl)-1,3-oxazol-5-yl]-2-phenylethyl}carbamoyl)-1,3-thiazol-2-yl]-4-methylpentan-3-yl}-N-methyl-L-isoleucinamide] | 25.8 nM | – | – | – |
| CC[C@H](C)[C@H](NC(=O)[C@@]1(C)CCCN1C)C(=O)N(C)[C@H](C[C@@H](OC(C)=O)c1nc(C(=O)NCCc2cnn(C)c2)cs1)C(C)C [#B77, 1,2-dimethyl-D-prolyl-N-[(1R,3R)-1-(acetyloxy)-4-methyl-1-(4-{[2-(1-methyl-1H-pyrazol-4-yl)ethyl]carbamoyl}-1,3-thiazol-2-yl)pentan-3-yl]-N-methyl-L-isoleucinamide] | 249 nM | – | – | – |
